Measured values from patent publication US5622983A, “N-substituted cycloalkyl and polycycloalkyl α-substituted Trp-Phe- and phenethylamine derivatives” (Warner-Lambert Company, priority 1995, dated 1997).

Assays:
LoVo (xenograft) = experiment: LoVo xenograft growth in nude mice; assay type: in vivo
Experimental: One×10^6 LoVo cells in 0.1 mL serum-free RPMI were injected subcutaneously into the backs of 27 male nude mice. Xenografts were grown for 10 days prior to treatment, then randomly allocated to receive twice daily gavage with either 0.1 mL saline alone or containing 10 mg/kg/day of compound 20 for 20 days. Bidirectional tumor diameter was measured using vernier calipers and converted to volumes […]. The animals were sacrificed on Day 30. The protocol was approved by the UNSW Ethics committee.

[1] = Rat Social Interaction Test; assay type: in vivo; settings: 0,001 to 1.0 mg/kg s.c., paired rats
Source text: (Costall, B., University of Bradford)

Rat Elevated X-Maze Test = assay type: in vivo; settings: 0.01 to 1.0 mg/kg s.c.
Experimental: The dose was equivalent to 0.1 mg/kg p.o. compound 20.

[2] = Light/dark exploration test (anxiolytic activity); assay type: in vivo, mouse
Experimental: In FIG. 2 the number of mice was 5 and the pretreatment time was 40 minutes. The compound was given p.o. in 0.1, 1, and 10 mg/kg doses.
The apparatus was an open-topped box, 45 cm long, 27 cm wide, and 27 cm high, divided into a small (2/5) area and a large (3/5) area by a partition that extended 20 cm above the walls. There was a 7.5×7.5 cm opening in the partition at floor level. The small compartment was painted black and the large compartment white. The floor of each compartment was marked into 9 cm squares. The white compartment was illuminated by a 100-watt tungsten bulb 17 cm above the box and the black compartment by a similarly placed 60-watt red bulb. The laboratory was illuminated with red light.
All tests were performed between 13 hundred hours, 0 minutes and 18 hundred hours, 0 minutes. Each mouse was tested by placing it in the center of the white area and allowing it to explore the novel environment for five minutes. Its behavior was recorded on videotape and the behavioral analysis was performed subsequently from the recording. Five parameters were measured: the latency to entry into the dark compartment, the time spent in each area, the number of transitions between compartments, the number of lines crossed in each compartment, and the number of rears in each compartment.
Drugs were dissolved in water or saline and administered either subcutaneously, intraperitoneally, or by mouth (PO) via a stomach needle.

[3] = Withdrawal from long-term drug or alcohol treatment, mouse light/dark box test; assay type: in vivo
Experimental: The effect of the compounds of the instant invention is illustrated, for example, in the mouse "light/dark box" test in FIGS. 5-12.
In FIG. 5, five animals were given nicotine, 0.1 mg/kg i.p.b.d. for 14 days. After a 24-hour withdrawal period, compound (20) was given at 1.0 mg/kg i.p.b.d.
FIG. 6 illustrates the effect of long-term treatment and withdrawal from nicotine using compound (20A). Five mice were given nicotine at 0.1 mg/kg i.p.b.d. for 14 days. After a withdrawal period of 24 hours, compound (20A) was given at 10 mg/kg i.p.b.d.
FIG. 7 illustrates the effect of long-term treatment and withdrawal from diazepam with intervention with compound (20). Five mice were given diazepam, at 10 mg/kg i.p.b.d. for seven days. Withdrawal was for a 24-hour period; compound 20 was given at 1.0 mg/kg i.p.b.d.
FIG. 8 illustrates the effect of compound (20A) on the long-term treatment and withdrawal from diazepam. Five mice were given diazepam at 10 mg/kg i.p.b.d. for seven days. After a withdrawal period of 24 hours, compound (20A) was given at 10 mg/kg i.p.b.d.
FIG. 9 illustrates the effect compound (20A) on the long-term treatment and withdrawal from alcohol. Five mice were given alcohol in drinking water 8% w/v for 14 days. After a withdrawal period of 24 hours, compound (20) was given at 1.0 mg/kg i.p.b.d.
Five mice were given alcohol in drinking water, 8% w/v for 14 days. After a withdrawal period of 24 hours, compound (20A) was given at 10 mg/kg i.p.b.d.
FIG. 11 illustrates the effectiveness in the long-term treatment and withdrawal from cocaine. Five mice were given cocaine as 1.0 mg/kg i.p.b.d. for 14 days.
Five mice were given cocaine at 1.0 mg/kg i.p.b.d. for 14 days after a withdrawal period of 24 hours, compound (20a) was given at 1.0 mg/kg i.p.b.d.

[4] = Aspirin-induced gastric damage; assay type: in vivo, rat; settings: 10 mg/kg PO
Experimental: Aspirin-induced gastric damage was assessed in groups of 10 rats each.
All animals were fasted for 24 hours before and throughout the experiment. Drug or vehicle was given 10 minutes before an oral dose of 1 mL of a 45-mg/mL suspension of aspirin in 0.5% carboxymethylcellulose (CMC).
The animals were sacrificed five hours after aspirin administration and the stomachs removed and opened for examination.

[5] = Antagonism of intra-accumbens amphetamine hyperactivity (antipsychotic activity); assay type: in vivo, rat; settings: 10 mg/kg intraperitoneal; amphetamine 20 μg
Experimental: Male Sprague Dawley (CD) Bradford strain rats were used. The rats were housed in groups of five at a temperature of 21°±2° C. on a 12 hour light-dark cycle of lights-on between 07 hours 00 minutes and […]. Rats were fed CRM diet (Labsure) and allowed water ad libitum.
Rats were anesthetized with chloral hydrate (400 mg/kg SC) and placed in a Kopf stereotaxic frame. Chronically indwelling guide cannulae (constructedof stainless steel tubing 0.65 mm diameter held bilaterally in Parspex holders) were implanted using standard stereotaxic techniques to terminate 3.5 mm above the center of the nucleus accumbens (Ant. 9.4, Vert. 0.0, Lat. 1.6) or 5.0 mm above the central nucleus of the amygdala (Ant. 5.8, Vert. -1.8, Lat. ±4.5) (atlas of De Groot, 1959). The guides were kept patent during a 14-day recovery period using stainless steel stylers, 0.3 mm diameter, which extended 0.5 mmbeyond the guide tips.
Rats were manually restrained and the stylers removed. Intracerebral injection cannulae, 0.3 mm diameter, were inserted and drugs delivered in a volume of 0.5 μl over 5 seconds (a further 55 seconds was allowed for deposition) from Hamilton syringes attached via polythene tubing to the injection units. […]
The abilities of the compounds (20) and (20A) to inhibit the hyperactivity caused by the injection of amphetamine into the nucleus accumbens of the rat was measured. […]

[6] = 1 mg/kg SC, five-minute measurement periods

## CC(Cc1c[nH]c2ccccc12)(NC(=O)OC1C2CC3CC(C2)CC1C3)C(=O)NCC(NC(=O)CCC(=O)O)c1ccccc1 (stereo not drawn) [Example 20, [R-(R*,R*)-4-[[2-[[3-(1H-indol-3-yl)-2-methyl-1-oxo-2-[[(tricyclo[3.3.1.1^3,7]dec-2-yloxy)carbonyl]amino]propyl]amino]-1-phenylethyl]amino]-4-oxobutanoic acid]
LoVo (xenograft); 10 mg/kg/day by gavage for 20 days
  reduction of tumor volume at Day 30 compared to control: 53%
LoVo (xenograft); 10 mg/kg/day orally, 20 days, p <0.05, ANOVA
  tumor growth overall, mean tumor volume (FIG. 17): significantly inhibited tumor growth overall
LoVo (xenograft); 10 mg/kg/day, p <0.05, ANOVA
  day from which tumor size diverged significantly between control and treated animals: 21 days
[1]
  time spent in social interaction compared with control (FIG. 13): increase in time spent in social interaction
Rat Elevated X-Maze Test
  anxiolytic effect, time spent in the open arm end section (FIG. 14): anxiolytic effects
[2]; 1 mg/kg PO
  time spent in the light area of the test box: significantly (p <0.01) increased the time spent in the light area
[2]; [6]
  crossings into the dark area: 24
  crossings into the light area: 85
[2]; p.o. 0.1, 1, and 10 mg/kg, pretreatment 40 minutes
  anxiolytic activity, orally administered (FIG. 2): effectiveness
[2]; subcutaneous
  anxiolytic activity by the subcutaneous route: active
[3]; alcohol 8% w/v in drinking water 14 days, 24-hour withdrawal, compound 1.0 mg/kg i.p.b.d.
  time spent in the light section after withdrawal from alcohol (FIG. 9): demonstrates the effectiveness of the compound
[3]; cocaine 1.0 mg/kg i.p.b.d. 14 days
  time in the light section after withdrawal from cocaine (FIG. 11): increased time in the light section
[3]; diazepam 10 mg/kg i.p.b.d. seven days, 24-hour withdrawal, compound 1.0 mg/kg i.p.b.d.
  time spent in the light section after withdrawal from diazepam (FIG. 7): increased time spent in the light section
[3]; nicotine 0.1 mg/kg i.p.b.d. 14 days, 24-hour withdrawal, compound 1.0 mg/kg i.p.b.d.
  time spent in the light area after withdrawal from nicotine (FIG. 5): increased time spent in the light area
[4]
  reduction in ulcer formation: 48%
[4]; ±SD, saline control 12.1±6.85
  ulcer score: 6.3±4.14
[5]
  hyperactivity caused by intra-accumbens injection of amphetamine: reduced the hyperactivity
